Assay results reported in paper PMC3100226 (Journal of Pain Research, 2011).

Tests used:
TNF-α converting enzyme = TNF-α converting enzyme (Homo sapiens, UniProt P78536); experiment: Enzyme characterization panel: TNF-α converting enzyme; type: biochemical; conditions: data not shown
PI 3-Kδ = PI 3-Kδ (Homo sapiens, UniProt O00329); experiment: Enzyme characterization panel: PI 3-Kδ; type: biochemical; conditions: data not shown
human recombinant MAO-B = biological target: T1, human recombinant MAO-B (Homo sapiens, UniProt P27338); experiment: Human recombinant MAO-B functional assay; type: biochemical
T1 sequence (P27338 1-520): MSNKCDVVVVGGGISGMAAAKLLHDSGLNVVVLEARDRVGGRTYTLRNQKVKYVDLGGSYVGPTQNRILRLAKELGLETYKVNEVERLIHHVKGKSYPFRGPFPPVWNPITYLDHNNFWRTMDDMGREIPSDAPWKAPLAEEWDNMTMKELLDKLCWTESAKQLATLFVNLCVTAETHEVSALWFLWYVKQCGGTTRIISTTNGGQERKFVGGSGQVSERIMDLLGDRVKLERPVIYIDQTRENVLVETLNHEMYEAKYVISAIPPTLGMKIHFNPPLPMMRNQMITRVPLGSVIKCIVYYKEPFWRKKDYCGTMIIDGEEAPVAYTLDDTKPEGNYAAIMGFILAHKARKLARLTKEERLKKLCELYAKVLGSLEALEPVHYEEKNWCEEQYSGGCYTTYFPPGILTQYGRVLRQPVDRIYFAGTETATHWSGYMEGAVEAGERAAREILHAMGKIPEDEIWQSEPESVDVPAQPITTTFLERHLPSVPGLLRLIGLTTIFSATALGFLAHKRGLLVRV

5-HT3 = 5-HT3 (Rattus norvegicus, UniProt P35563); experiment: Receptor characterization panel: 5-HT3 binding; conditions: read-out: 10 μM CR4056 (% effect), inhibition of specific binding
[1] = tested on: endogenous norepinephrine (NE) levels; experiment: In vivo quantification of endogenous norepinephrine tissue levels; conditions: rat
imidazoline I2 receptor = experiment: [3H]2-BFI binding to imidazoline I2 receptors in rat whole-brain membranes; conditions: read-out: IC50, nM, [3H]2-BFI binding to the imidazoline I2 receptor; Table S2; rat whole brain membranes, […] [3H]2-BFI, 90 minutes at 25°C; mean ± SEM
MAO-A = biological target: T2, MAO-A (Rattus norvegicus, UniProt P21396); experiment: MAO-A binding
T2 sequence (P21396 1-526): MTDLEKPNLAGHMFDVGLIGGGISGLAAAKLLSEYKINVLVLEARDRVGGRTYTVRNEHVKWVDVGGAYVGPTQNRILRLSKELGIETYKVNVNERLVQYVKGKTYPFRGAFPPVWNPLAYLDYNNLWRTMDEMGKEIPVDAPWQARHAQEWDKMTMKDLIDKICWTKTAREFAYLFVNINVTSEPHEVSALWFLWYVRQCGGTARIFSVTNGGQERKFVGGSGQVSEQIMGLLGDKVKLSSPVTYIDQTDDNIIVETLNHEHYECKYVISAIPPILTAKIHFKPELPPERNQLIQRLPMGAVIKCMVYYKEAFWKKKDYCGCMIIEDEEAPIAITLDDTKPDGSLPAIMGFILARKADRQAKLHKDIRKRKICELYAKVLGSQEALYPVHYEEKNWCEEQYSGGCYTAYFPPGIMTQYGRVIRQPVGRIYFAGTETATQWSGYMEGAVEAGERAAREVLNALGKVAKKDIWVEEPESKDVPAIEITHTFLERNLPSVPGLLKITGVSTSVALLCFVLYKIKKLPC

BDZ (central) = experiment: Receptor characterization panel: central BDZ binding; conditions: 10 μM; [3H]Flunitrazepam; cerebral cortex/rat
[2] = biological target: catechol-O-methyl transferase (COMT) (Homo sapiens, UniProt P21964); experiment: Enzyme characterization panel: COMT; type: biochemical; conditions: data not shown
I2 = experiment: Receptor characterization panel: I2 binding; conditions: 10 μM; [3H]Idazoxan (+1 μM yohimbine); cerebral cortex/rat
carbonic anhydrase II = carbonic anhydrase II (Homo sapiens, UniProt P00918); experiment: Enzyme characterization panel: carbonic anhydrase II; type: biochemical; conditions: data not shown
[3] = tested on: capsaicin-induced neurogenic/inflammatory pain in rats; experiment: Capsaicin-induced mechanical hyperalgesia; type: in vivo; conditions: rat
[4] = tested on: STZ-induced diabetic pain in rats; experiment: Streptozotocin-induced neuropathic; type: in vivo; conditions: rat, 60 mg/kg oral
conscious dog = experiment: Safety pharmacology, cardiovascular, conscious dog; type: in vivo; conditions: supra-pharmacological doses
[5] = sub-chronic (four days) oral 20 mg/kg once daily, versus vehicle

5-HT3, sequence (P35563 24-483): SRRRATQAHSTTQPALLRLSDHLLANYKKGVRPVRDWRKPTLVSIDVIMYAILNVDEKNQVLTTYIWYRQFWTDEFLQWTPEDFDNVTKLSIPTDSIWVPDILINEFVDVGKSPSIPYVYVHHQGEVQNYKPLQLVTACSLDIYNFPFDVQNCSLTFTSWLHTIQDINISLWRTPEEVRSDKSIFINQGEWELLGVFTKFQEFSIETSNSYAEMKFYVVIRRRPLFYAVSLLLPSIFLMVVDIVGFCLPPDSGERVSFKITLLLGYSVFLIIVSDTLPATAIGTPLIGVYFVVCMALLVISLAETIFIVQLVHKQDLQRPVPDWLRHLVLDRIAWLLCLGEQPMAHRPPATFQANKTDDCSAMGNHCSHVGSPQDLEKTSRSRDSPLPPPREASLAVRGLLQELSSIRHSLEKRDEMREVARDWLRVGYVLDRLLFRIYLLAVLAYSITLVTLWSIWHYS
catechol-O-methyl transferase (COMT), sequence (P21964 whole entry, species assumed): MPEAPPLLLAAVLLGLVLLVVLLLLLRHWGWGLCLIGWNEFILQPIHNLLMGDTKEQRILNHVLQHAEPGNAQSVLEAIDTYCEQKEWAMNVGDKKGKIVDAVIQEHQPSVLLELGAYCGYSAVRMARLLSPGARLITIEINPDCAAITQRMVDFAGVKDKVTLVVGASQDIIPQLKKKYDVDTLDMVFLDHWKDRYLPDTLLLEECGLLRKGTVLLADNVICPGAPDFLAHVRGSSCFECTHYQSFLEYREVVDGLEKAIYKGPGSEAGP
TNF-α converting enzyme, sequence (P78536 215-824, species assumed): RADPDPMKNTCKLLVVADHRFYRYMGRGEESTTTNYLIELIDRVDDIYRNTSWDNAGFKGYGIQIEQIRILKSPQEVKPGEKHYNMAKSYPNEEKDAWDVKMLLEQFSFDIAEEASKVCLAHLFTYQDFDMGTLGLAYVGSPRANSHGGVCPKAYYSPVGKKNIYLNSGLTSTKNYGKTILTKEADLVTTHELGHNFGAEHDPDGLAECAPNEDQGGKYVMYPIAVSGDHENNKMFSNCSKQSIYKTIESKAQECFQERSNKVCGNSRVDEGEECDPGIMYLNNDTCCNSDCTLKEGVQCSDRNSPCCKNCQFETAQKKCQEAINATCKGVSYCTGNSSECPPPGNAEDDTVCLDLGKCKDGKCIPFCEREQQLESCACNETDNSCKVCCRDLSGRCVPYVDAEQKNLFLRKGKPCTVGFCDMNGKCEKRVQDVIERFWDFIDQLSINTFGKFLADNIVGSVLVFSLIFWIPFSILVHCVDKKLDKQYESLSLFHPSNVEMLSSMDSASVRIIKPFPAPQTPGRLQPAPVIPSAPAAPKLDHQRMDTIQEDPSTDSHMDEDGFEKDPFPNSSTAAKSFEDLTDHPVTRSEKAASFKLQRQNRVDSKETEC
PI 3-Kδ, sequence (O00329 whole entry, species assumed): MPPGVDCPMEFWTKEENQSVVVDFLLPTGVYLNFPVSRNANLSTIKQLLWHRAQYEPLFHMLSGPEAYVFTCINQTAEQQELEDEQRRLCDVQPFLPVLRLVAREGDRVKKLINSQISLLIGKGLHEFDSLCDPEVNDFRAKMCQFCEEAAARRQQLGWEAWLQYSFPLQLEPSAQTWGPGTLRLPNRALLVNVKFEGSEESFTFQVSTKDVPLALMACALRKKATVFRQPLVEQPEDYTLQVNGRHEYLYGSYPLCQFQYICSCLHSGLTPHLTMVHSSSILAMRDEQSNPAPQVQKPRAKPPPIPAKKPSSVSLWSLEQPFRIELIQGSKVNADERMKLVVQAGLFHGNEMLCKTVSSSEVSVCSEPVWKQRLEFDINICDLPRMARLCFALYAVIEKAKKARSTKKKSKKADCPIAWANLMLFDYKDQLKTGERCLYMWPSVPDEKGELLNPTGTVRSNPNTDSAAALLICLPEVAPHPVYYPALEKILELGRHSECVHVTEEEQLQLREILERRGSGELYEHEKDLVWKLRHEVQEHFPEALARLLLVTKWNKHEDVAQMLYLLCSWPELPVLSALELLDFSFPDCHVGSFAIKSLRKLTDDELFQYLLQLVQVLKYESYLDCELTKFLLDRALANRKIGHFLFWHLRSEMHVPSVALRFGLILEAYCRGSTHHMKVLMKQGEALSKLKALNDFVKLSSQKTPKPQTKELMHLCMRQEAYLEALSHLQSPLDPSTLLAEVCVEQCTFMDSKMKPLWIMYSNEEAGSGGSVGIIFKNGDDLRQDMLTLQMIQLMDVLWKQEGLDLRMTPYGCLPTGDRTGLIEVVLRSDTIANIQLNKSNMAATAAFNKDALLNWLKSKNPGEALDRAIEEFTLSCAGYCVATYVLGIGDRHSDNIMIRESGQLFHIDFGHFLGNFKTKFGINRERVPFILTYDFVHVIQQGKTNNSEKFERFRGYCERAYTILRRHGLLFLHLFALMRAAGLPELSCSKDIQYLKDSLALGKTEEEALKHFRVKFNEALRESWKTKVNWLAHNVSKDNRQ
PI 3-Kδ, sequence (P27986 whole entry partner, species assumed): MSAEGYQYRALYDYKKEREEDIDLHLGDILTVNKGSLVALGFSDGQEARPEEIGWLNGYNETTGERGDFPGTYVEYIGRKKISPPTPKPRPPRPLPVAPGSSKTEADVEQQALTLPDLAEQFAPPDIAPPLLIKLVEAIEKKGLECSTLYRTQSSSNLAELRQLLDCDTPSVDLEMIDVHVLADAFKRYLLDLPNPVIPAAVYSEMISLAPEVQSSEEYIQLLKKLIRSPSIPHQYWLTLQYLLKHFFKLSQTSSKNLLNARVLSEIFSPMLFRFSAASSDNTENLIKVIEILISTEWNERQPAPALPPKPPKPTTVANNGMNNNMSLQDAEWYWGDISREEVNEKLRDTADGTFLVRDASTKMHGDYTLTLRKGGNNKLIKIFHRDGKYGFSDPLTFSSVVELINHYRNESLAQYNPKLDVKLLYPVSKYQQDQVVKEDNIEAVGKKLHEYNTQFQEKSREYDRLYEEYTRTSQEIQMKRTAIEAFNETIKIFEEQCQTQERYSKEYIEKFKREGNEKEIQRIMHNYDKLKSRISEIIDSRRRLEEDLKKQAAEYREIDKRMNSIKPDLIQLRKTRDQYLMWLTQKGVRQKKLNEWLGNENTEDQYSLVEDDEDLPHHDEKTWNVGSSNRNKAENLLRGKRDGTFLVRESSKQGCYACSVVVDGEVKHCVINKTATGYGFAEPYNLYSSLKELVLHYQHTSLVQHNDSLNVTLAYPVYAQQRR

c1ccc(-c2ncc3cc(-n4ccnc4)ccc3n2)cc1 [CR4056, 2-phenyl-6-(1H-imidazol-1yl)quinazoline]
Activity in enzyme characterization panel (TNF-α converting enzyme): inactive | Activity in enzyme characterization panel (PI 3-Kδ): inactive | IC50 (human recombinant MAO-B): > 10 µM | Times less active as inhibitor of MAO-B activity than of MAO-A (human recombinant MAO-B; human recombinant enzymes): about 100 times | inhibition at 10 µM (5-HT3): 28% | Effect on NE levels, plasma ([1]; oral 20 mg/kg): No effect | Effect on NE levels, lumbar spinal cord ([1]; single oral dose 20 mg/kg, two hours after dosing): not statistically significant | Increase of endogenous NE levels, parieto-occipital cortex ([1]; single oral dose 20 mg/kg, two hours after dosing, versus vehicle): 68.2% ± 14.1% | Increase of NE levels, cerebral cortex [1, 5]: 63.1% ±4.2% | Increase of NE levels, lumbar spinal cord [1, 5]: 51.3% ± 6.7% | IC50 (imidazoline I2 receptor): 596 ± 76 nM | IC50 (MAO-A): 358 ± 12 nM | inhibition at 10 µM (MAO-A; read-out: 10 μM CR4056 (% effect), inhibition of specific binding, 10 μM, [3H]Ro 41-1049, cerebral cortex/rat): > 90% | 10 μM CR4056 (% effect), inhibition of specific binding (BDZ (central)): 21% | Activity in enzyme characterization panel [2]: inactive | 10 μM CR4056 (% effect), inhibition of specific binding (I2): 66% | Activity in enzyme characterization panel (carbonic anhydrase II): inactive | Reversal of the decrease in withdrawal threshold caused by capsaicin ([3]; 10 mg/kg oral, P < 0.001 versus vehicle): significantly reversed | Reversal of the effect of capsaicin ([3]; 30 mg/kg oral): completely reversed | ED50, capsaicin-induced mechanical hyperalgesia, CR4056 alone ([3]; p.o.): 4.13 mg/kg | ED100, capsaicin-induced mechanical hyperalgesia ([3]; p.o.): 17.9 mg/kg | Decrease of total STZ-induced hyperalgesic effect, AUC analysis (0–6 hours) [4]: 84% | Reduction of mechanical hyperalgesia at 6 hours post-dosing [4]: 58% | Reversal of STZ-induced mechanical hyperalgesia ([4]; within 30 minutes): completely reversed | Cardiovascular effects (conscious dog): slight hypertensive effects associated with tachycardia
